Data reported in PubChem BioAssay (NCI).
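Method: 48-hour compound exposure of cells in 96-well plates, five concentrations, linear interpolation of endpoints. TGI is the concentration that stops growth completely.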

Experiments:
Test in all cases: NCI tumour cell line growth inhibition, 48 h
RXF 393 renal = system: RXF 393 renal
HCC-2998 colon = system: HCC-2998 colon
MOLT-4 leukemia = system: MOLT-4 leukemia
NCI-H23 lung = system: NCI-H23 lung
CAKI-1 renal = system: CAKI-1 renal
SK-MEL-2 melanoma = system: SK-MEL-2 melanoma
SNB-19 CNS = system: SNB-19 CNS
XF 498 CNS = system: XF 498 CNS
SW-620 colon = system: SW-620 colon
OVCAR-8 ovarian = system: OVCAR-8 ovarian
DLD-1 colon = system: DLD-1 colon
SNB-75 CNS = system: SNB-75 CNS
SK-MEL-5 melanoma = system: SK-MEL-5 melanoma
DMS 114 small cell lung = system: DMS 114 small cell lung
SN12C renal = system: SN12C renal
U251 CNS = system: U251 CNS
M14 melanoma = system: M14 melanoma
NCI-H522 lung = system: NCI-H522 lung
HOP-92 NSCLC = system: HOP-92 NSCLC
COLO 205 colon = system: COLO 205 colon
M19-MEL melanoma = system: M19-MEL melanoma
OVCAR-4 ovarian = system: OVCAR-4 ovarian
LOX IMVI melanoma = system: LOX IMVI melanoma
UACC-62 melanoma = system: UACC-62 melanoma
HOP-62 NSCLC = system: HOP-62 NSCLC
IGROV1 ovarian = system: IGROV1 ovarian
OVCAR-3 ovarian = system: OVCAR-3 ovarian
RXF-631 renal = system: RXF-631 renal
RPMI-8226 leukemia = system: RPMI-8226 leukemia
ACHN renal = system: ACHN renal
786-0 renal = system: 786-0 renal
DMS 273 small cell lung = system: DMS 273 small cell lung
SK-MEL-28 melanoma = system: SK-MEL-28 melanoma
SR leukemia = system: SR leukemia
NCI-H226 lung = system: NCI-H226 lung
OVCAR-5 ovarian = system: OVCAR-5 ovarian
HOP-18 NSCLC = system: HOP-18 NSCLC
SNB-78 CNS = system: SNB-78 CNS
A549 NSCLC = system: A549 NSCLC
CCRF-CEM leukemia = system: CCRF-CEM leukemia
EKVX NSCLC = system: EKVX NSCLC
SF-295 CNS = system: SF-295 CNS
HCT-116 colon = system: HCT-116 colon
HL-60(TB) leukemia = system: HL-60(TB) leukemia
HT29 colon = system: HT29 colon
K-562 leukemia = system: K-562 leukemia
SF-268 CNS = system: SF-268 CNS
A498 renal = system: A498 renal
KM12 colon = system: KM12 colon
UACC-257 melanoma = system: UACC-257 melanoma
LXFL 529 NSCLC = system: LXFL 529 NSCLC
KM20L2 colon = system: KM20L2 colon
MALME-3M melanoma = system: MALME-3M melanoma
SK-OV-3 ovarian = system: SK-OV-3 ovarian
TK-10 renal = system: TK-10 renal
UO-31 renal = system: UO-31 renal
SF-539 CNS = system: SF-539 CNS
NCI-H460 lung = system: NCI-H460 lung
SN12K1 renal = system: SN12K1 renal
P388/ADR leukemia = system: P388/ADR leukemia
HCT-15 colon = system: HCT-15 colon
NCI/ADR-RES ovarian = system: NCI/ADR-RES ovarian
P388 leukemia = system: P388 leukemia
MCF7 breast = system: MCF7 breast

SMILES: COC(=O)C1CCC2(CC1)NC(=O)NC2=O (stereo not given)
- TGI (RXF 393 renal): > 100 µM
- TGI (HCC-2998 colon): > 100 µM
- TGI (MOLT-4 leukemia): > 100 µM
- TGI (NCI-H23 lung): > 100 µM
- TGI (CAKI-1 renal): > 100 µM
- TGI (SK-MEL-2 melanoma): > 100 µM
- TGI (SNB-19 CNS): > 100 µM
- TGI (XF 498 CNS): > 100 µM
- TGI (SW-620 colon): > 100 µM
- TGI (OVCAR-8 ovarian): > 100 µM
- TGI (DLD-1 colon): > 100 µM
- TGI (SNB-75 CNS): > 100 µM
- TGI (SK-MEL-5 melanoma): > 100 µM
- TGI (DMS 114 small cell lung): > 100 µM
- TGI (SN12C renal): > 100 µM
- TGI (U251 CNS): > 100 µM
- TGI (M14 melanoma): > 100 µM
- TGI (NCI-H522 lung): > 100 µM
- TGI (HOP-92 NSCLC): > 100 µM
- TGI (COLO 205 colon): > 100 µM
- TGI (M19-MEL melanoma): > 100 µM
- TGI (OVCAR-4 ovarian): > 100 µM
- TGI (LOX IMVI melanoma): > 100 µM
- TGI (UACC-62 melanoma): > 100 µM
- TGI (HOP-62 NSCLC): > 100 µM
- TGI (IGROV1 ovarian): > 100 µM
- TGI (OVCAR-3 ovarian): > 100 µM
- TGI (RXF-631 renal): > 100 µM
- TGI (RPMI-8226 leukemia): > 100 µM
- TGI (ACHN renal): > 100 µM
- TGI (786-0 renal): > 100 µM
- TGI (DMS 273 small cell lung): > 100 µM
- TGI (SK-MEL-28 melanoma): > 100 µM
- TGI (SR leukemia): > 100 µM
- TGI (NCI-H226 lung): > 100 µM
- TGI (OVCAR-5 ovarian): > 100 µM
- TGI (HOP-18 NSCLC): > 100 µM
- TGI (SNB-78 CNS): > 100 µM
- TGI (A549 NSCLC): > 100 µM
- TGI (CCRF-CEM leukemia): > 100 µM
- TGI (EKVX NSCLC): > 100 µM
- TGI (SF-295 CNS): > 100 µM
- TGI (HCT-116 colon): > 100 µM
- TGI (HL-60(TB) leukemia): > 100 µM
- TGI (HT29 colon): > 100 µM
- TGI (K-562 leukemia): > 100 µM
- TGI (SF-268 CNS): > 100 µM
- TGI (A498 renal): > 100 µM
- TGI (KM12 colon): > 100 µM
- TGI (UACC-257 melanoma): > 100 µM
- TGI (LXFL 529 NSCLC): > 100 µM
- TGI (KM20L2 colon): > 100 µM
- TGI (MALME-3M melanoma): > 100 µM
- TGI (SK-OV-3 ovarian): > 100 µM
- TGI (TK-10 renal): > 100 µM
- TGI (UO-31 renal): > 100 µM
- TGI (SF-539 CNS): > 100 µM
- TGI (NCI-H460 lung): > 100 µM

SMILES: CCC1OC(=O)C(C)C(OC2CC(C)(O)C(O)C(C)O2)C(C)C(O)C(C)(O)CC(C)C(=O)C(C)C(O)C1C (stereo not given)
- TGI (RXF 393 renal): > 300 µM
- TGI (HCC-2998 colon): > 300 µM
- TGI (SN12K1 renal): > 300 µM
- TGI (MOLT-4 leukemia): > 300 µM
- TGI (NCI-H23 lung): > 300 µM
- TGI (CAKI-1 renal): > 300 µM
- TGI (SK-MEL-2 melanoma): > 300 µM
- TGI (SNB-19 CNS): > 300 µM
- TGI (XF 498 CNS): > 300 µM
- TGI (SW-620 colon): > 300 µM
- TGI (OVCAR-8 ovarian): > 300 µM
- TGI (DLD-1 colon): > 300 µM
- TGI (SNB-75 CNS): > 300 µM
- TGI (P388/ADR leukemia): > 300 µM
- TGI (SK-MEL-5 melanoma): > 300 µM
- TGI (HCT-15 colon): > 300 µM
- TGI (NCI/ADR-RES ovarian): > 300 µM
- TGI (DMS 114 small cell lung): > 300 µM
- TGI (SN12C renal): > 300 µM
- TGI (U251 CNS): > 300 µM
- TGI (NCI-H522 lung): > 300 µM
- TGI (P388 leukemia): > 300 µM
- TGI (HOP-92 NSCLC): > 300 µM
- TGI (COLO 205 colon): > 300 µM
- TGI (MCF7 breast): > 300 µM
- TGI (M19-MEL melanoma): > 300 µM
- TGI (OVCAR-4 ovarian): > 300 µM
- TGI (LOX IMVI melanoma): > 300 µM
- TGI (UACC-62 melanoma): > 300 µM
- TGI (HOP-62 NSCLC): > 300 µM
- TGI (IGROV1 ovarian): > 300 µM
- TGI (OVCAR-3 ovarian): > 300 µM
- TGI (RPMI-8226 leukemia): > 300 µM
- TGI (DMS 273 small cell lung): > 300 µM
- TGI (SK-MEL-28 melanoma): > 300 µM
- TGI (NCI-H226 lung): > 300 µM
- TGI (OVCAR-5 ovarian): > 300 µM
- TGI (HOP-18 NSCLC): > 300 µM
- TGI (SNB-78 CNS): > 189 µM
- TGI (A549 NSCLC): > 300 µM
- TGI (CCRF-CEM leukemia): > 300 µM
- TGI (EKVX NSCLC): > 300 µM
- TGI (SF-295 CNS): > 300 µM
- TGI (HCT-116 colon): > 300 µM
- TGI (HL-60(TB) leukemia): > 300 µM
- TGI (HT29 colon): > 300 µM
- TGI (K-562 leukemia): > 300 µM
- TGI (SF-268 CNS): > 300 µM
- TGI (A498 renal): > 300 µM
- TGI (KM12 colon): > 300 µM
- TGI (UACC-257 melanoma): > 300 µM
- TGI (KM20L2 colon): > 300 µM
- TGI (MALME-3M melanoma): > 300 µM
- TGI (SK-OV-3 ovarian): > 300 µM
- TGI (UO-31 renal): > 300 µM
- TGI (SF-539 CNS): > 300 µM
- TGI (NCI-H460 lung): > 300 µM

SMILES: O=c1c2ccccc2nc(-c2ccccc2Cl)n1NC1OC(CO)C(O)C(O)C1O (stereo not given)
- TGI (HCC-2998 colon): > 100 µM
- TGI (MOLT-4 leukemia): > 100 µM
- TGI (NCI-H23 lung): > 100 µM
- TGI (CAKI-1 renal): > 100 µM
- TGI (SK-MEL-2 melanoma): > 100 µM
- TGI (SNB-19 CNS): > 100 µM
- TGI (XF 498 CNS): > 100 µM
- TGI (SW-620 colon): > 100 µM
- TGI (OVCAR-8 ovarian): > 100 µM
- TGI (DLD-1 colon): > 100 µM
- TGI (SNB-75 CNS): > 100 µM
- TGI (SK-MEL-5 melanoma): > 100 µM
- TGI (HCT-15 colon): > 100 µM
- TGI (DMS 114 small cell lung): > 100 µM
- TGI (SN12C renal): > 100 µM
- TGI (U251 CNS): > 100 µM
- TGI (M14 melanoma): > 100 µM
- TGI (NCI-H522 lung): > 100 µM
- TGI (HOP-92 NSCLC): > 100 µM
- TGI (COLO 205 colon): > 100 µM
- TGI (M19-MEL melanoma): > 100 µM
- TGI (OVCAR-4 ovarian): > 100 µM
- TGI (UACC-62 melanoma): > 100 µM
- TGI (HOP-62 NSCLC): > 100 µM
- TGI (IGROV1 ovarian): > 100 µM
- TGI (OVCAR-3 ovarian): > 100 µM
- TGI (RPMI-8226 leukemia): > 100 µM
- TGI (ACHN renal): > 100 µM
- TGI (786-0 renal): > 100 µM
- TGI (DMS 273 small cell lung): > 100 µM
- TGI (SK-MEL-28 melanoma): > 100 µM
- TGI (NCI-H226 lung): > 100 µM
- TGI (OVCAR-5 ovarian): > 100 µM
- TGI (HOP-18 NSCLC): > 100 µM
- TGI (SNB-78 CNS): > 100 µM
- TGI (A549 NSCLC): > 100 µM
- TGI (CCRF-CEM leukemia): > 100 µM
- TGI (EKVX NSCLC): > 100 µM
- TGI (SF-295 CNS): > 100 µM
- TGI (HCT-116 colon): > 100 µM
- TGI (HL-60(TB) leukemia): > 100 µM
- TGI (HT29 colon): > 100 µM
- TGI (K-562 leukemia): > 100 µM
- TGI (SF-268 CNS): > 100 µM
- TGI (A498 renal): > 100 µM
- TGI (KM12 colon): > 100 µM
- TGI (UACC-257 melanoma): > 100 µM
- TGI (LXFL 529 NSCLC): > 100 µM
- TGI (KM20L2 colon): > 100 µM
- TGI (MALME-3M melanoma): > 100 µM
- TGI (SK-OV-3 ovarian): > 100 µM
- TGI (TK-10 renal): > 100 µM
- TGI (UO-31 renal): > 100 µM
- TGI (SF-539 CNS): > 100 µM
- TGI (NCI-H460 lung): > 100 µM
